# Experimental data taken from patent US20250255867A1 (Kadmon Corporation, LLC, priority 2022, published 2025).
# Structures can show the parent of a compound that is named as a salt.
# Tests used:
# [1] = Solubility of belumosudil mesylate; format: physicochemical
# [2] = Example 1: plasma pharmacokinetics (Cmax, Tmax, AUC0-6 hr) of belumosudil and metabolites; format: in vivo, human
# Method: Cmax was the maximum observed plasma concentration, obtained by a non-compartmental analysis. […] Timeframe: Cycles 1 and 2: pre-dose (0 hour), 1, 2, 3, 4, 5, and 6 hours post-dose on Day 1. […] Here, ‘number analyzed’=participants with available data for each specified category.
# Tmax was defined as time to reach maximum observed plasma concentration, obtained by a non-compartmental analysis. […] Timeframe: Cycles 1 and 2: pre-dose (0 hour), 1, 2, 3, 4, 5, and 6 hours post-dose on Day 1. Analysis was performed on PK population. Here, ‘number analyzed’=participants with available data for each specified category.
# AUC0-6 hr was defined as area under the plasma concentration versus time curve from time 0 to 6 hours post-dose, obtained by a non-compartmental analysis from the concentration-time data. […] Timeframe: Cycles 1 and 2: pre-dose (0 hour), 1, 2, 3, 4, 5, and 6 hours post-dose on Day 1. Analysis was performed on PK population. Here, ‘number analyzed’=participants with available data for each specified category.
# [3] = Cohort 1: Belumosudil 200 mg QD, Cycle 1 Day 1
# [4] = Cohort 1: Belumosudil 200 mg QD, Cycle 2 Day 1
# [5] = Cohort 2: Belumosudil 200 mg BID, Cycle 1 Day 1
# [6] = Cohort 2: Belumosudil 200 mg BID, Cycle 2 Day 1
# [7] = Cohort 3: Belumosudil 400 mg QD, Cycle 1 Day 1
# [8] = Cohort 3: Belumosudil 400 mg QD, Cycle 2 Day 1
"Maximum Observed Plasma Concentration (Cmax), Geometric Mean (Geometric Coefficient of Variation) [2, 3]","Maximum Observed Plasma Concentration (Cmax), Geometric Mean (Geometric Coefficient of Variation) [2, 4]","Maximum Observed Plasma Concentration (Cmax), Geometric Mean (Geometric Coefficient of Variation) [2, 5]","Maximum Observed Plasma Concentration (Cmax), Geometric Mean (Geometric Coefficient of Variation) [2, 6]","Maximum Observed Plasma Concentration (Cmax), Geometric Mean (Geometric Coefficient of Variation) [2, 7]","Maximum Observed Plasma Concentration (Cmax), Geometric Mean (Geometric Coefficient of Variation) [2, 8]",Structure (SMILES),Solubility in DMF [1],Solubility in DMSO [1],Solubility in methanol [1],Solubility in water [1],"Area Under the Plasma Concentration Versus Time Curve From Time 0 to 6 Hours Post-dose (AUC0-6 hr), Geometric Mean (Geometric Coefficient of Variation) [2, 3]","Area Under the Plasma Concentration Versus Time Curve From Time 0 to 6 Hours Post-dose (AUC0-6 hr), Geometric Mean (Geometric Coefficient of Variation) [2, 4]","Area Under the Plasma Concentration Versus Time Curve From Time 0 to 6 Hours Post-dose (AUC0-6 hr), Geometric Mean (Geometric Coefficient of Variation) [2, 5]","Area Under the Plasma Concentration Versus Time Curve From Time 0 to 6 Hours Post-dose (AUC0-6 hr), Geometric Mean (Geometric Coefficient of Variation) [2, 6]","Area Under the Plasma Concentration Versus Time Curve From Time 0 to 6 Hours Post-dose (AUC0-6 hr), Geometric Mean (Geometric Coefficient of Variation) [2, 7]","Area Under the Plasma Concentration Versus Time Curve From Time 0 to 6 Hours Post-dose (AUC0-6 hr), Geometric Mean (Geometric Coefficient of Variation) [2, 8]"
,,,,,,"CC(C)NC(=O)COc1cccc(-c2nc(Nc3ccc4[nH]ncc4c3)c3ccccc3n2)c1 [Belumosudil mesylate, 2-{3-[4-(1H-indazol-5-ylamino)-2-quinazolinyl]phenoxy}-N-(propan-2-yl) acetamide methanesulfonate (1:1)]",slightly soluble,soluble,slightly soluble,practically insoluble,,,,,,
44.4 (67.9%) nanograms per milliliter,36.2 (43.0%) nanograms per milliliter,34.8 (58.8%) nanograms per milliliter,45.0 (38.6%) nanograms per milliliter,63.9 (59.4%) nanograms per milliliter,55.8 (82.1%) nanograms per milliliter,NC(=O)COc1cccc(-c2nc(Nc3ccc4[nH]ncc4c3)c3ccccc3n2)c1 [KD025m1],,,,,140 (72.3%) hours*nanograms per milliliter,123 (38.2%) hours*nanograms per milliliter,114 (60.8%) hours*nanograms per milliliter,160 (31.3%) hours*nanograms per milliliter,216 (61.9%) hours*nanograms per milliliter,178 (72.9%) hours*nanograms per milliliter
208 (93.1%) nanograms per milliliter,158 (150%) nanograms per milliliter,99.2 (112%) nanograms per milliliter,145 (147%) nanograms per milliliter,388 (82.3%) nanograms per milliliter,265 (154%) nanograms per milliliter,O=C(O)COc1cccc(-c2nc(Nc3ccc4[nH]ncc4c3)c3ccccc3n2)c1 [KD025m2],,,,,565 (90.8%) hours*nanograms per milliliter,471 (145%) hours*nanograms per milliliter,282 (125%) hours*nanograms per milliliter,513 (122%) hours*nanograms per milliliter,1150 (97.1%) hours*nanograms per milliliter,923 (144%) hours*nanograms per milliliter
